From patent US20070141581A1, “Membrane androgen receptor as a therapeutic target for the prevention/promotion of cell death” (University of North Texas Health Science Center at Fort …, priority 2005, published 2007)

How the values were obtained:
[1] = system: ERK; assay: ERK phosphorylation in C6 glial cells (Western blot); type: cell-based, Rat
Procedure: (§1) Materials and Methods. Cell culture. Rat glioma cells (C6; American Type Culture Collection, Manassas, Va.) were propagated in Dulbecco's Modified Eagle Medium (DMEM; Invitrogen, Carlsbad, Calif.) supplemented with 10% charcoal-stripped fetal bovine serum (FBS; Hyclone, Logan, Utah), and maintained at 37° C. in a humidified environment containing 5% CO2.
(§2) Treatment of cultures. C6 glial cells were treated with either vehicle control (DMSO, 0.1%), dihydrotestosterone (DHT) (Steraloids Inc., Newport, R.I.), or 5α-androstan-17β-ol-3-one-3-o-carboxymethyloxime:BSA (DHT-BSA) (Steraloids Inc.) at the concentrations indicated for 30 minutes, to assess the effects of these hormones on ERK and Akt phosphorylation. […] Inhibition of the classical androgen receptor was achieved using the androgen receptor antagonist, Flutamide (3 μM; Sigma-Aldrich, St. Louis, Mo.), which was applied 30 minutes prior to treatment with the hormone. Inhibition of MEK, the signaling protein upstream of ERK was achieved using U0126 (10 μM; Cell Signaling, Beverly, Mass.), also pre-incubated for a period of 30 minutes prior to hormone administration.
(§3) Western blot analysis. Following treatment with hormone and/or inhibitor, C6 glial cells were harvested into lysis buffer containing protease and phosphatase inhibitors as described previously (25). Following homogenization, samples were centrifuged at 99,000×g for 15 min at 4° C., and the resulting supernatants were evaluated for total protein concentrations using the BioRad DC (Biorad Labs, Hercules, Calif.) protein assay kit [based on the method of Lowry; (26)]. Sample lysates were loaded onto a sodium dodecyl sulfate (SDS), 10% polyacrylamide gel (PAGE), subjected to electrophoresis, and subsequently transferred onto a polyvinylidene difluoride membrane (PVDF; 0.22 μm pore size, BioRad). The membrane was blocked for 6 hrs with a 3% BSA in 0.2% Tween-containing TBS (TBS-T) solution prior to application of the primary antibody. The following primary antibodies were used: for the detection of the androgen receptor, anti-AR (C-19) (1:200; Santa Cruz Biotechnology); for the detection of the phosphorylated form of Akt: rabbit anti-phospho-Akt (Ser473; 1:1000; Cell Signaling, Beverly, Mass.), for the detection of total Akt, anti Akt (1:1000; Cell Signaling); for the detection of the phosphorylated form of ERK1/2, rabbit anti phospho-p44/42 Map Kinase (Thr202/Tyr204, 1:1000; Cell Signaling); for the detection of total ERK1 and ERK2, goat anti-ERK1 (C-16, 1:500)/goat anti-ERK2 (C-14, 1:500; Santa Cruz Biotechnology). Antibody binding to the membrane was detected using a secondary antibody (either goat anti-rabbit or rabbit anti-goat) conjugated to horseradish peroxidase (1:20,000; Pierce, Rockford, Ill.) and visualized using enzyme-linked chemiluminescence (ECL, Amersham, Arlington Heights, Ill.) with the aid of the UVP imaging system. Phospho-Akt and phosphoERK blots were re-probed with anti-Akt or anti ERK1/2 antibodies to ensure equal loading across lanes.
(§4) Statistical Analysis. Densitometric analysis of the Western blots was conducted using the LabWorks Image Acquisition and Analysis Software (UVP Inc., Upland, Calif.). Densitometric data from at least three independent studies was subjected to an analysis of variance (ANOVA), followed by a Tukey's post hoc analysis for the assessment of group differences, and presented as a bar graph depicting the average±S.E.M., using the GraphPad Software (San Diego, Calif.).

[2] = system: Akt; assay: Akt phosphorylation in C6 glial cells (Western blot); type: cell-based, Rat
Procedure: as §1, §2, §3, §4

[3] = system: C6 glial cells; assay: LDH release / iodoacetic acid (IAA) induced cell death of C6 glial cells; type: cell-based, Rat
Procedure: Triton-X (Tr-X, 0.9%)-induced lysis of cells served as the positive control for LDH release. Estradiol (E2, 10 μM) treatment of cells served as the positive control for protection against IAA-induced LDH release. Data are representative of two independent studies. The effect shown in FIG. 10, is in sharp contrast to the protective effect of DHT reported previously, and supports further the observation that two, potentially competing, mechanisms regulate the effects of androgens on cell viability. In all studies that used the membrane impermeable androgen, the DHT-BSA preparation was filtered using a 10 kDa nominal cut-off column prior to application of this steroid hormone conjugate, to ensure that the effects of DHT-BSA were not attributed to, or confounded by the presence of free (unconjugated) DHT. Stevis, et al., (Stevis P E, Deecher D C, Suhadolnik L, Mallis L M, Frail D E 1999 Differential effects of estradiol and estradiol-BSA conjugates. Endocrinology 140:5455-8) have described that the commercially available preparation of estradiol-conjugated to BSA (E2-BSA), for example, was contaminated with some free estradiol.

[4] = system: membrane-associated androgen receptor; assay: Flow cytometry binding of DHT-BSA-FITC to the cell surface of live C6 glial cells; set-up: species or system Rat; conditions: 20-fold molar excess of DHT (1 mM) vs DHT-BSA-FITC 50 μM
Procedure: Flow cytometry. Briefly, C6 glial cells (10^6 cells) were pipetted into a 1.5 ml micro-centrifuge tube, centrifuged at 250×g for 5 minutes and washed twice with 1 ml of PBS. […] In parallel, cells were re-suspended in PBS treated with BSA-FITC (50 μM; Sigma Aldrich), serving as the control for the detection of “non-specific binding”. Following this incubation period, the cells were washed twice in PBS and resuspended in 500 μl of PBS. The labeled C6 glial cells were injected into an EPICS XL-MCL flow cytometer (Beckman Coulter) and analyzed with System 2 software (Beckman Coulter).
In order to determine if DHT-BSA binds to a specific site on the cell surface (indicative of a membrane-associated androgen receptor), the binding of the fluorescently-labeled DHT-BSA (DHT-BSA-FITC) in C6 glial cells was evaluated. Non-“fixed” and non-permeabilized C6 glial cells were treated with DHT-BSA-FITC (50 μM) in the presence or absence of 20-fold molar excess of DHT (1 mM). Incubation of the cells with BSA-FITC alone for 30 min at 4° C. provided a measure of non-specific binding.
To determine if DHT-BSA binds to surface (plasma membrane) receptors, C6 glial cells were treated with DHT-BSA-FITC (50 μM) for 30 min. in the presence/absence of a 20-fold molar excess of DHT (1 mM). Samples were washed and analyzed using flow cytometric analysis.

[5] = system: hippocampal neuron damage; conditions: kainic acid model, reference 33; cited from earlier work

With “5α-androstan-17β-ol-3-one-3-o-carboxymethyloxime:BSA [DHT-BSA]” the “ERK phosphorylation (phospho-ERK levels relative to sham control)” value ([1]; 0.01, 0.1, 1.0 μM, 30 min, particularly at 100 nM and 1 μM) was “substantial suppression of ERK phosphorylation”, the “concentration at which the inhibitory effect on ERK phosphorylation becomes evident” value ([1]; 30 min, C6 glial cells) was 0.1 µM and the “effect on DHT-induced ERK phosphorylation” value ([1]; co-applied with DHT 10 nM, 30 min, 0.01, 0.1, 1 μM, dose dependent) was “blocked the effect of DHT”. The “Akt phosphorylation (phospho-Akt levels relative to sham control)” value ([2]; 0.01, 0.1 and 1 μM, 30 min) was “dose-dependent suppression of Akt phosphorylation”, the “concentration at which the inhibitory effect on Akt phosphorylation becomes evident” value ([2]; 30 min, C6 glial cells) was 0.1 µM and the “cellular damage as assessed by LDH release into the media” value ([3]; increasing concentrations, alone) was “did not result in cellular damage”. For the same molecule, the “toxicity associated with IAA (LDH release)” value ([3]; with low level insult IAA 10 μM) was “significantly increased the toxicity associated with IAA”.

In the case of `C[C@]12CCC(=O)C[C@@H]1CC[C@@H]1[C@@H]2CC[C@]2(C)[C@@H](O)CC[C@@H]12` [DHT, dihydrotestosterone], the “displacement of DHT-BSA-FITC labeling” value [4] is reported as “displaced”, the “ERK phosphorylation at higher concentrations” value [1] is reported as “did not result in an increase in ERK phosphorylation” and the “increase in the phosphorylation of ERK” value [1] is reported as 2.5 fold. For the same molecule, the “Akt phosphorylation (phospho-Akt levels)” value [2] was “induced an increase in Akt phosphorylation” and the “amount of hippocampal neuron damage” value [5] was “reduce the amount of hippocampal neuron damage”.

With `C[C@]12CCC(=NOCC(=O)O)C[C@@H]1CC[C@@H]1[C@@H]2CC[C@]2(C)[C@@H](O)CC[C@@H]12` [DHT:CMO, 5α-androstan-17β-ol-3-one-3-o-carboxymethyloxime] the “ERK phosphorylation by CMO-modified DHT” value ([1]; 0.01, 0.1, 1 μM, 30 min) was “did not alter the ability of the androgen to elicit ERK phosphorylation”.

With `CC(C)C(=O)Nc1ccc([N+](=O)[O-])c(C(F)(F)F)c1` [Flutamide] the “effect of AR antagonist on DHT-induced Akt phosphorylation” value ([2]; Flutamide 3 μM) was “failed to inhibit”.

In the case of `N#CC(=C(/N)Sc1ccccc1N)/C(C#N)=C(\N)Sc1ccccc1N` [U0126], the “effect of MEK1/2 inhibitor on DHT-induced ERK phosphorylation” value [1] is reported as “blocked”.

In the case of Pertussis toxin, the “effect of Gi/o inhibitor on DHT-BSA-mediated suppression of ERK phosphorylation” value ([1]; 50 μM, data not shown) is reported as “failed to prevent” and the “effect of Gi/o inhibitor on DHT-BSA-mediated suppression of Akt phosphorylation” value ([2]; 50 μM, data not shown) is reported as “failed to prevent”.
